Experimental data published in patent US11103489B2, “Drug for preventing or treating inflammatory bowel disease” (NATIONAL UNIVERSITY CORPORATION OKAYAMA UNIVERSITY, priority 2015, dated 2021).
Entries after “also recorded” stand apart in the source; their conditions may differ.

Experiments:
[1] = test system: DSS colitis model mice; assay: DSS (2% aqueous solution) colitis model mice, drug efficacy and side effects (3); format: in vivo, C57BL/6 mice; settings: 2% DSS
Description: (§1) 1. Six-week old (body weight: 20 g) male C57BL/6 mice were purchased and acclimated for 5 to 7 days.
(§2) 2. An average weight was mated between groups having 5 to 6 animals.
(§3) 3. A DSS untreated group (normal) had free access to mineral water filtered through a […] membrane filter. A DSS […] group (vehicle and drug group) had free access to mineral water containing 2% dextran sulfate sodium (DSS) filtered through a […] membrane filter for 6 days and then mineral water filtered through a 0.22 μM membrane filter.
(§4) 4. After initiation of free access to DSS-containing water, a body weight was measured every day and then an evaluated drug was orally administered.
(§5) 6. An orally administered solution was prepared by dissolving the drug in ethanol to a final concentration of 1% and suspending the solution in a 0.5% solution of carboxymethylcellulose (CMC).
(§6) 7. The drug was administered for 11 days, and the next day, a mouse was euthanized followed by blood collection and dissection. A large intestine and a spleen were isolated. A large intestine length was measured and photographs of the large intestine and the spleen were taken. A section of the large intestine was taken and photographed.

[2] = test system: RXR; settings: cited from earlier work
[3] = test system: DSS colitis model mice; assay: DSS (2% aqueous solution) colitis model mice, drug efficacy and side effects (1); format: in vivo, C57BL/6 mice
Description: as §1, §2, §3, §4, §5, §6
8. The collected blood was heparinized to give plasma, which was used for determining a blood triglyceride (TG).

[4] = test system: DSS colitis model mice; assay: DSS (3% aqueous solution) colitis model mice, drug efficacy and side effects (2); format: in vivo, C57BL/6 mice; settings: 3% DSS
Description: as §1, §2
3. A DSS untreated group (normal) had free access to mineral water filtered through a […] membrane filter. […]
as §4, §5, §6

[5] = test system: Raw264.7 cells; assay: Inhibitory effect on LPS-stimulated NO production (Griess assay); settings: LPS 100 ng/mL; for LPS-stimulated NO production: 48 hours; for NO-production inhibitory effect in combination with RU486 (GR antagonist): combined with 1 μM of RU486
[6] = Measurement of a blood concentration of a drug after oral administration; format: in vivo, ICR mice; settings: single oral dose of 3 mg/kg; at any time (0, 1, 3, 6 h); plasma
Description: 1. Six-week old male ICR mice (body weight: 15 to 25 g) were fasted from the evening of the day before the experiment, and a compound solution prepared in [2] below at a volume of 10 mL/kg was orally administered via a stomach tube. At 0, 1, 3, and 6 hours after the administration, the animals were anesthetized with ether, and incised the abdomen to collect blood from a large vein. The blood was transferred into a heparinized tube and centrifuged at 5000 rpm for 5 minutes, to collect 100 μL of plasma. Each treated group had five mice.
2. A dose of the compound was 30, 3, 0.3 mg/kg per an animal. A dosage form of the compound was prepared by dissolving it in ethanol to a final concentration of 1% and suspending the solution in a 0.5% solution of carboxymethylcellulose (CMC).
3. To 100 μL of the plasma were added 100 μL of an ammonium acetate buffer (prepared by adding acetic acid to 5 mM of ammonium acetate and adjusting a pH to 5), and then 1 mL of ethyl acetate. The mixture was vortexed for 30 min, allowed to stand at room temperature for 10 min and centrifuged for 30 sec to remove 800 μL of a supernatant, which was then concentrated by a centrifugal evaporator. The residue was stored at −20° C.
4. […] Then, for 20 μL of the sample, a compound concentration was determined by HPLC or LCMS. […]

[7] = Measurement of a drug concentration in feces; format: in vivo, ICR mice; settings: for concentration in feces: oral gavage
Description: 1. For each treated group, four six-week old male ICR mice (body weight: 35 to 40 g) were used.
2. An orally-administered solution was prepared by dissolving it in ethanol to a final concentration of 1% and suspending the solution in a 0.5% solution of carboxymethylcellulose (CMC).
3. Each mouse was housed in a cage and had free access to feed and water.
4. After a body weight was measured at 10 a.m., the animal was gavaged with an evaluated drug via a feeding tube.
5. From the next day, feces in each cage were collected for 3 days.
6. Hundred milligrams of the feces were dried under vacuum at 40° C. and pulverized in a mortar. Then, 1.5 mL of HPLC-grade methanol was added, followed by ultrasonic extraction for 20 min.
7. After the extraction, the mixture was centrifuged at 4° C. and 1,500×g for 20 min.
8. After the centrifugation, 1 mL of the supernatant was filtered through a syringe filter and poured into a 2 mL Eppendorf tube.
9. […] The concentration was converted to a concentration per 100 mg of feces.
10. Since extraction with 1.5 mL of methanol was conducted assuming that 100 mg of the above feces corresponded to 100 μL, a concentration in feces was estimated by multiplying the concentration in methanol determined by LC/MS by […].

[8] = Measurement of a drug concentration in a large intestine; format: in vivo, ICR mice; settings: the next day after 3 day administration
Description: 1. The next day of the last medication (day 3 of medication), a mouse used in Example 2 was euthanized with ether and then a large intestine was excised.
2. Faces were removed from the removed large intestine and the inside of the large intestine was washed with PBS. Excess water was removed with Kimwipes.
3. About 200 mg of the above large intestine was precisely placed in a 2 mL Eppendorf tube.
4. To the Eppendorf tube was added 800 μL of HPLC-grade methanol, and the mixture was pulverized by a homogenizer. Methanol was further added such that the total volume of methanol added became five times as much as the volume of the large intestine.
5. The mixture was ultrasonic-extracted for 20 min.
6. After the extraction, the extract was centrifuged at 4° C. and 1,500×g for 20 min.
7. After the centrifugation, about 1 mL of the supernatant was filtered through a syringe filter and poured into a 2 mL Eppendorf tube.
9. Since extraction with […] of methanol was conducted assuming that 200 mg of the above […] corresponded to 200 μL, a concentration in a large intestine was estimated by multiplying the concentration in methanol determined by LC/MS by 5.

[9] = cited from earlier work
[10] = 2% DSS, oral 100 mg/kg/day, 11 days
[11] = 2% DSS, repeated oral dosing at 10 mg/kg/day, in comparison with bexarotene

For `O=C(O)c1cc(/N=N/c2ccc(S(=O)(=O)Nc3ccccn3)cc2)ccc1O` [SASP, salazosulfapyridine, reference compound], which “weight change, improvement effect compared with a vehicle” value ([1]; oral 200 mg×2/kg/day) is on record?
Its value is “did not exhibit improvement effect”.

What does the source list for `CCN(c1ccc(C(C)C)c(OCCOC)c1)c1ccc(C(=O)O)cn1` [NEt-3ME]?
effect relative to NEt-3IB ([1]; at a dose three times as much as NEt-3IB (30 vs 10 mg/kg/day)): comparable to NEt-3IB; weight change ([1]; oral 30 mg/kg/day): inhibited body weight reduction; RXR receptor activation potency relative to NEt-3IB [2]: less receptor activation potency than NEt-3IB

What does the source list for `Nc1ccc(O)c(C(=O)O)c1` [5-Aminosalicylic acid, 5-aminosalicylic acid, reference compound]?
improvement in body weight reduction [3, 10]: did not contribute to improvement in body weight reduction; recovery of a large intestine length [3, 10]: did not contribute

What does the source list for `C[C@]12C=CC(=O)C=C1CC[C@@H]1[C@@H]2[C@@H](O)C[C@@]2(C)[C@H]1CC[C@]2(O)C(=O)CO` [Prednisolone, prednisolone, reference compound]?
anti-inflammatory effect ([4]; oral administration at 10 mg/kg/day): did not exhibit anti-inflammatory effect; LPS-stimulated NO production [5]: inhibited; NO-production inhibitory effect in combination with RU486 (GR antagonist) [5]: inhibited by combination use of RU486

Which results are given for `CCN(c1ccc(C(C)C)c(OCC(C)C)c1)c1ccc(C(=O)O)cn1` [NEt-3IB]?
blood concentration [6]: < 0.1 µM; increase in the concentration in feces by repeated administration ([7]; 3 day oral administration): increase in the concentration by repeated administration was not found; concentration in feces ([7]; Day 1): 40 ± 6 µM; concentration in feces ([7]; Day 2): 33 ± 4 µM; concentration in feces ([7]; Day 3): 22 ± 1 µM; concentration in a large intestine [8]: 0.0027 ± 0.0003 µM; improvement in body weight reduction [3, 11]: prominent improvement in body weight reduction; recovery of a large intestine length [3, 11]: recovery of a large intestine length; blood triglyceride (TG) ([3]; 2% DSS, repeated oral dosing, compared with bexarotene): inhibited increase in blood TG; also recorded: increase in a blood triglyceride by the agent was reduced; anti-inflammatory effect on DSS enteritis ([3]; repetitive oral administration, 1 mg/kg/day): prominent anti-inflammatory effect; inhibition of body weight reduction ([4]; oral 10 mg/kg/day): prominent inhibition of body weight reduction; recovery of a large intestine length ([4]; oral 10 mg/kg/day): recovery of a large intestine length; weight change ([1]; oral 10 mg/kg/day): inhibited body weight reduction; absorption in oral administration ([9]; reported): poorly absorbed; enlarged liver or increase in triglyceride ([9]; reportedly, in contrast to a conventional RXR full agonist): does not cause an enlarged liver or increase in triglyceride; LPS-stimulated NO production [5]: inhibited; NO-production inhibitory effect in combination with RU486 (GR antagonist) [5]: not inhibited
